For assay [1], the system named is "acetic contortions" in mice. Put plainly: Analgetic activity on the model "acetic contortions". It counts as in vivo, white mongrel mice. The note with it: dose 10 mg/kg (table title); for inhibition in vivo at 10 mg/kg / response vs control in vivo at 10 mg/kg: Mus musculus, ip, 0.25 h; for inhibition in vivo at 10 mg/kg: read-out: Analgetic effect (%); for response vs control in vivo at 10 mg/kg: read-out: C, % to the control; for C ± m (the number of contortions for 15 minutes): 60 minutes prior to acetic acid. How it is done: The tests were conducted on males of white mongrel mice weighing 22-24 grams. The specific pain response (“contortions”) were elicited by intraperitoneal administration to mice of 0.75% acetic acid solution. The following signs were taken into consideration: the number of seizure contractions of abdominal muscles accompanied by stretching the hind limbs and sagging the back. Analgetic effect was assessed by decrease in the number of contortions in animals in percent to the control for 15 minutes post administration of acetic acid. The technique of the tests is disclosed in Koster R., Anderson M., de Beer B.//Fed. Proc. 1959. V. 18. P. 412. Compounds under testing were administered intraperitoneally (using a probe) at a dose 10 μg/kg 60 minutes prior to injection of the acid. Diclofenac (10 mg/kg) was used as a reference drug. Analgetic effect was calculated according to the formula: […]
wherein Ck is the number of contortions in the control group,
Co is the number of contortions in the test group.

Another assay has as its system cyclooxygenase. Description: In vitro effect on [14C]arachidonic acid metabolism in a cell-free homogenate of murine pulmonary tissue. It counts as biochemical, CBA mice. The note with it: compound 10^−4 M; for Prostanoids / 6-keto-PGF1α / AA (arachidonic acid) / PGE2 / PGF2α / TXB2: 37° C., 30 minutes; for Prostanoids: b308 reads these as % cyclooxygenase inhibition; for 6-keto-PGF1α / AA (arachidonic acid) / PGE2 / PGF2α / TXB2: change; for 6-keto-PGF1α / PGF2α: first of only four cells in the row; for TXB2 / PGE2: second of only four cells in the row. How it is done: Studies of arachidonic acid metabolism was carried out on females CBA mice who where fed a standard vivarium fodder. Animals (mice) were sacrificed, lungs were extracted, homogenized in a glass homogenizer manufactured by the firm “Wheaton” (USA) at 4° C. in 10 volumes of 0.05 M Tris-HCl buffer. Aliquots (0.5 ml) of supernatant were incubated in 0.5 μCi [1-C^14]-arachidonic acid [C^14]-AA, “Amersham”, England; specific activity 50-60 μCi/mmole) at 37° C. for 30 minutes. Non-metabolized [αC^14]-AA and products of metabolism thereof were extracted in 20 volumes of chloroform and methanol mixture (1:1) in extraction efficacy not less than 90% assessed using [C^14]-PGF2α. [C^14]-AA and metabolites thereof were separated and identified using TLC (the plates Kieselgel 60 of the “Merck” firm, Germany) using as an organic phase, the system of solvents (ethylacetate, isooctane, acetic acid, water—110:50:20:100) and labeled standards. Densitometry of autoradiochromograms obtained on the X-ray film X-Omat AR (“Kodak”, USA) and HS 11 (“ORWO”, Germany), was performed on the densiscan KS 3 (“Kipp and Zonnen”, Holland). Quantitative analysis of individual eicosanoids was carried out using radiometry of fractions obtained by high-performance liquid chromatography (the HPLC-system of the “Gilson” form, France; the column ZORBAX C8 of the “Du Pont” firm, USA) and by elution of spots on TLC-plates. The tested compounds were administered at concentration 10^−4 M.

The subject of a further assay is "hot plate" test in mice. Description: Analgetic activity on the model "hot plate". It counts as in vivo, white mongrel mice. The note with it: 10 mg/kg; for Latent time of NT (%) / response vs control in vivo at 10 mg/kg: percent of background; for response vs control in vivo at 10 mg/kg / change in vivo at 10 mg/kg: Mus musculus; for response vs control in vivo at 10 mg/kg: read-out: Latent time of NT (%); for change in vivo at 10 mg/kg: read-out: Analgesia (%). The procedure: The tests were conducted on males of white mongrel mice weighing 22-24 grams. The animals were individually placed on a hot plate (manufactured by the firm “Ugo Basile”), a temperature of which remained constant and was equal to 55° C. The following first manifestations of pain reaction were recorded: licking paws, jumping up prior to administration of a substance (background parameters) and 0.5, 1, 2, 3 and 4 hours post administration of a substance. Substances were administered […] (using a probe). A weighed amount of a substance was thoroughly mixed in 0.1 ml Tween 80 until a solution was obtained, then normal saline was added up to a volume of 0.5 ml. Average latent time of nociception threshold (NT) was calculated in every group. The results obtained were expressed in percent of the background values. Analgetic effect (in %) was calculated according to the formula: A−100%=X, wherein A is a background parameter; X is analgetic effect (in %)
A is (time 0.5 to 4 hours post administration×100%): background time
As reference drugs, Analgin (150 mg/kg), Paracetamol (200 mg/kg), Ketorol (10 mg/kg), were used.

The mark [2] stands for this setting: 120 minutes post administration.
Setting [3] is: 240 minutes post administration.

Read-outs that look alike come from different tables or passages of the source.

The values below come from patent publication US8309766B2 (Obschestvo S. Organichennoi Otvetstvennostiyu …, priority 2005, dated 2012).

With `O=C(CCc1ccc(O)cc1)NCCc1ccc(O)cc1` [Compound X, 3-(p-hydroxyphenyl)-propionyltyramine], in assay [1], the inhibition in vivo at 10 mg/kg stood at 54%, the response vs control in vivo at 10 mg/kg was found to be 46% and the “C ± m (the number of contortions for 15 minutes)” value amounted to 11.0 ± 2.4. Besides, in the assay with cyclooxygenase, the Prostanoids is listed as −22, the 6-keto-PGF1α is −9, the “AA (arachidonic acid)” value was “+27” and the PGE2 was −38. In the assay on cyclooxygenase, this compound had a PGF2α of −15 and a TXB2 of −42. In the assay on "hot plate" test in mice (30 minutes), the “Analgesia (%)” value turned out to be 75.3% and the “Latent time of NT (%)” value is given as 175.3%. Moreover, in the assay with "hot plate" test in mice (30 minutes post administration), the “latent time of nociception threshold, M ± m” value (shortened to “latent time … M ± m”) is 7.54 ± 0.78 s. Further, in the assay on "hot plate" test in mice (60 minutes), the “Analgesia (%)” value turned out to be 33.8% and the “Latent time of NT (%)” value is listed as 133.7%. Further, the “latent time … M ± m” value in the assay on "hot plate" test in mice (60 minutes post administration) worked out at 5.75 ± 0.83 s. In addition, in the assay with "hot plate" test in mice (120 minutes), the “Analgesia (%)” value stood at 97.7% and the “Latent time of NT (%)” value is on record as 197.7%. Moreover, in the assay with "hot plate" test in mice (setting [2]), the “latent time … M ± m” value is 8.50 ± 1.03 s. For the same compound, in the assay with "hot plate" test in mice (240 minutes), the “Analgesia (%)” value is reported as 100.6% and the “Latent time of NT (%)” value is listed as 200.6%. For the same compound, the “latent time … M ± m” value in the assay with "hot plate" test in mice (setting [3]) turned out to be 8.84 ± 0.925 s.

In the case of `O=C(Cc1ccc(O)cc1)NCCc1ccccc1`, in assay [1], the inhibition in vivo at 10 mg/kg is 56.5%, the response vs control in vivo at 10 mg/kg was 43.5% and the “C ± m (the number of contortions for 15 minutes)” value came to 16.0 ± 4.5. Also, in the assay with cyclooxygenase, the Prostanoids was −40, the “AA (arachidonic acid)” value is “+40”, the “6-keto-PGF1α / PGF2α” value was −45 and the “TXB2 / PGE2” value is −33. The “latent time … M ± m” value in the assay with "hot plate" test in mice (60 minutes post administration) turned out to be 8.5 ± 0.27 s. In the assay with "hot plate" test in mice (setting [2]), the “latent time … M ± m” value came to 6.5 ± 1.16 s. Further, in the assay with "hot plate" test in mice (1 h, 60 minutes), the response vs control in vivo at 10 mg/kg was 160% and the change in vivo at 10 mg/kg came to 59.6%. Besides, in the assay with "hot plate" test in mice (2 h, 120 minutes), the response vs control in vivo at 10 mg/kg is 123% and the change in vivo at 10 mg/kg turned out to be 23.3%.

Regarding `O=C(CCc1ccccc1)NCCc1ccc(O)cc1` [Compound XII, 3-phenylpropionyltyramine], in assay [1], the inhibition in vivo at 10 mg/kg was 41.4%, the response vs control in vivo at 10 mg/kg is 58.6% and the “C ± m (the number of contortions for 15 minutes)” value came out at 20.1 ± 2.1. Besides, in the assay with cyclooxygenase, the Prostanoids is −44, the “AA (arachidonic acid)” value is recorded as “+42”, the “6-keto-PGF1α / PGF2α” value is reported as −42 and the “TXB2 / PGE2” value is recorded as −47.

With `O=C(Cc1ccc(O)cc1)NC(Cc1ccccc1)C(=O)O` (centres unmarked) [Compound III, p-hydroxyphenylacetylphenylalanine], the inhibition in vivo at 10 mg/kg in assay [1] was 39.9%. Also, the response vs control in vivo at 10 mg/kg in assay [1] stood at 60.2%; in the assay on "hot plate" test in mice (0.5 h, 30 minutes), 181%; with "hot plate" test in mice (1 h, 60 minutes), 160%; in the assay on "hot plate" test in mice (2 h, 120 minutes), 189%. In addition, the “C ± m (the number of contortions for 15 minutes)” value in assay [1] stood at 19.4 ± 3.3. Further, the entries for the “latent time … M ± m” value in the assay with "hot plate" test in mice (30 minutes post administration), with "hot plate" test in mice (60 minutes post administration) and in the assay with "hot plate" test in mice (setting [2]) were 6.7 ± 0.9 s, 5.9 ± 0.8 s and 7.0 ± 0.6 s, respectively. Also, the change in vivo at 10 mg/kg with "hot plate" test in mice (0.5 h, 30 minutes) came out at 81%; with "hot plate" test in mice (1 h, 60 minutes), 59.5%; in the assay on "hot plate" test in mice (2 h, 120 minutes), 89.2%.

Regarding `O=C(CCc1ccccc1)NCCc1ccccc1` [Compound XI, 3-phenylpropionylphenylethylamine], the inhibition in vivo at 10 mg/kg in assay [1] came to 38.2%. Also, the response vs control in vivo at 10 mg/kg is 61.8% in assay [1]; 143% with "hot plate" test in mice (0.5 h, 30 minutes); 174% with "hot plate" test in mice (1 h, 60 minutes); 141% with "hot plate" test in mice (3 h, 180 minutes); 136% in the assay with "hot plate" test in mice (4 h, 240 minutes). Moreover, the “C ± m (the number of contortions for 15 minutes)” value in assay [1] is 21.2 ± 2.5. Further, the “latent time … M ± m” value in the assay with "hot plate" test in mice (30 minutes post administration) is 5.35 ± 0.98 s; in the assay with "hot plate" test in mice (60 minutes post administration), 6.49 ± 1.1 s; with "hot plate" test in mice (180 minutes post administration) it was 6.27 ± 0.33 s; in the assay on "hot plate" test in mice (setting [3]), 4.07 ± 0.26 s. For the same compound, the change in vivo at 10 mg/kg with "hot plate" test in mice (0.5 h, 30 minutes) worked out at 43.4%; with "hot plate" test in mice (1 h, 60 minutes), 74%; in the assay with "hot plate" test in mice (3 h, 180 minutes) it was 41.3%; in the assay with "hot plate" test in mice (4 h, 240 minutes) it was 35.9%.

In the case of `O=C(CCc1ccc(O)cc1)N[C@@H](Cc1ccc(O)cc1)C(=O)O` [Compound XIV, 3-(p-hydroxyphenyl)-propionyltyrosine], in the assay with cyclooxygenase, the Prostanoids is on record as −35, the 6-keto-PGF1α is −24, the “AA (arachidonic acid)” value is “+84” and the PGE2 was −54. Also, in the assay on cyclooxygenase, the PGF2α was −24 and the TXB2 is −49. In the assay on "hot plate" test in mice (30 minutes post administration), the “latent time … M ± m” value amounted to 5.59 ± 1.12 s. In addition, the “latent time … M ± m” value in the assay on "hot plate" test in mice (60 minutes post administration) was determined as 4.7 ± 0.51 s. The “latent time … M ± m” value in the assay on "hot plate" test in mice (setting [2]) was 7.3 ± 1.09 s. The “latent time … M ± m” value with "hot plate" test in mice (setting [3]) is 6.78 ± 0.504 s. Besides, in the assay with "hot plate" test in mice (0.5 h, 30 minutes), the response vs control in vivo at 10 mg/kg stood at 150% and the change in vivo at 10 mg/kg worked out at 50.3%. Moreover, in the assay on "hot plate" test in mice (1 h, 60 minutes), the response vs control in vivo at 10 mg/kg is 126% and the change in vivo at 10 mg/kg worked out at 26.3%. Moreover, in the assay with "hot plate" test in mice (2 h, 120 minutes), the response vs control in vivo at 10 mg/kg is 196% and the change in vivo at 10 mg/kg came out at 96.2%. In the assay with "hot plate" test in mice (4 h, 240 minutes), the response vs control in vivo at 10 mg/kg turned out to be 182% and the change in vivo at 10 mg/kg was determined as 82.3%.

In the case of `COC(=O)[C@H](Cc1ccccc1)NC(=O)CCc1ccc(O)cc1` [Compound XIII, 3-(p-hydroxyphenyl)-propionylphenylalanine methyl ester], the inhibition in vivo at 10 mg/kg in assay [1] is 48.4%. Besides, the response vs control in vivo at 10 mg/kg in assay [1] was found to be 51.6%; in the assay with "hot plate" test in mice (0.5 h, 30 minutes) it was 107%; in the assay with "hot plate" test in mice (1 h, 60 minutes), 122%; in the assay on "hot plate" test in mice (2 h, 120 minutes), 124%. Further, in assay [1], the “C ± m (the number of contortions for 15 minutes)” value was determined as 14.6 ± 1.8. Moreover, the “latent time … M ± m” value is 5.9 ± 0.3 s with "hot plate" test in mice (30 minutes post administration), 6.7 ± 0.7 s with "hot plate" test in mice (60 minutes post administration) and 6.8 ± 0.3 s in the assay with "hot plate" test in mice (setting [2]). Also, the change in vivo at 10 mg/kg in the assay on "hot plate" test in mice (0.5 h, 30 minutes) is 7.3%; with "hot plate" test in mice (1 h, 60 minutes) it was 21.8%; in the assay on "hot plate" test in mice (2 h, 120 minutes), 23.6%.
